According to PMC9573696, “Experimental Examination of Solubility and Lipophilicity as Pharmaceutically Relevant Points of Novel Bioactive Hybrid Compounds” (Molecules, 2022):
Values after ≈ are worked out from the molar mass of the structure shown.

Experiments:
[1] = test system: C. glabrata 61L; experiment: In vitro antifungal activity, microbroth dilution (MIC); type: cell-based; conditions: C. glabrata 61L
Summary of the method: (§1)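 MICs were determined by CLSI microbroth dilution, with fluconazole as the reference drug. Plates were incubated at 35 °C for 24 h and growth was scored visually against a sample-free reference culture. Each test was run in triplicate.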

[2] = test system: C. parapsilosis ATCC 22019; experiment: as above; type: cell-based; conditions: C. parapsilosis ATCC 22019
Summary of the method: as §1

[3] = test system: C. utilis 84; experiment: as above; type: cell-based; conditions: C. utilis 84
Summary of the method: as §1

[4] = Partition in system 1-octanol/buffer pH 7.4, shake-flask method; type: physicochemical; conditions: for logP at 2 days / logD at 2 days: 1-octanol/buffer pH 7.4, pH 7.4, 1-octanol/buffer pH 7.4; for logP at 2 days: from concentrations in mole fraction; for logD at 2 days / logPo/b: from concentrations in mol∙L^−1; for sb × 10^6 (concentration in buffer) / so × 10^4 (concentration in 1-octanol) / xb × 10^7 (mole fraction in buffer) / xo × 10^5 (mole fraction in 1-octanol) / logPo/b: 1-octanol/buffer pH 7.4
Description: The partition coefficients of the new hybrid compounds in the model system 1-octanol/buffer pH 7.4 as a lipophilicity surrogate were determined experimentally. […] It is the lipophilic properties that allow the hybrids to move from the water phase to the less hydrophilic octanol phase, where the solute–solvent intermolecular interactions are more favourable. According to the results shown in Table 5, the order of changes in the partition coefficients logPo/b at T = 298.15 K, depending on the substituent nature, is expressed as the inequality: Cl- (1.65) < F- (2.40) < CH3- (2.50). Compounds I and II are the most lipophilic in the series of the studied substances, whereas the introduction of a chlorine atom considerably lowers the partition coefficient (~0.8 log units). This fact agrees with the common concept that lipophilic groups are usually hydrocarbon or fluorine-containing radicals. […] For drugs with such partition coefficients, there is a good balance between the solubility and permeability through passive diffusion and minimum metabolism due to the low binding capacity with enzymes.
The octanol/buffer pH 7.4 partition coefficient logPO/B is measured in a static mode using the shake-flask method. The procedure has been presented as standard in the Organization for Economic Cooperation and Development (OECD) guidelines for testing chemicals. The equipment described above was also used for the determination of the 1-octanol/water partition coefficients. […] The correctness of the obtained value of each compound was verified by checking the mass balance of the starting amount of the compound and the total amount of the compound partitioned between the two phases.
To aim evaluated transfer (partition) thermodynamic functions, the 1-octanol/buffer partition coefficients P^* o/b as the ratio of equilibrium concentrations in the organic (xo) and aqueous phases (xb) expressed in mole fractions were calculated: P* o/b = xo/xb(12)

[5] = Thermodynamic functions of transfer 1-octanol/buffer pH 7.4; type: physicochemical; conditions: 298.15 K
Description: The temperature variation of the partition coefficient provides enthalpic and entropic contributions to the free energy of transfer. The thermodynamic transfer functions for hybrids I–III in the 1-octanol/buffer pH 7.4 system were calculated by Equations (12)–(16) and are summarized in Table 6. The standard Gibbs energy values for all the compounds are negative. Therefore, the transfer from the aqueous medium to the organic phase within the studied temperature range is thermodynamically favourable and spontaneous. The standard transfer enthalpies of all the studied compounds are positive, which means the process is endothermic. Energy is consumed during the transfer to overcome the hydrophobic effects in water (destruction of the molecule solvate shell structure), destruction of the solvent–solute interactions in the aqueous medium and creation of a cavity in the organic phase where the solute molecules can enter.
The standard change in Gibbs free energy of transfer (∆trG^o) from the buffer to the organic phase was calculated by Equation (14):∆trG^o = −RTlnP*o/b(14)
The standard change entropy of transfer (∆trS^o) is determined as follows:∆trS^o = (∆trH^o − ∆trG^o)/T(15)

MIC relative to the reference value (fluconazole) [1]: four times less
MIC ([1]; Nakaseomyces glabratus, 35 °C, 24 h, read-out: MIC): 2 µg/mL (≈ 3.03 µM)
MIC ([2]; Lodderomyces parapsilosis, ATCC22019, 35 °C, 24 h, read-out: MIC): 0.25 µg/mL (≈ 0.379 µM)
MIC ([3]; Williopsis jadinii, 35 °C, 24 h, read-out: MIC): 2 µg/mL (≈ 3.03 µM)
logP at 2 days ([4]; 293.15 K): 2.56
logD at 2 days ([4]; 293.15 K): 1.62
logP at 2 days ([4]; 298.15 K): 2.59
logP at 2 days ([4]; 303.15 K): 2.61
logP at 2 days ([4]; 308.15 K): 2.64
logD at 2 days ([4]; 308.15 K): 1.7
logP at 2 days ([4]; 313.15 K): 2.69
logD at 2 days ([4]; 313.15 K): 1.73
sb × 10^6 (concentration in buffer) ([4]; 293.15 K): 9.29 mol∙L^−1 (printed as sb × 10^6
so × 10^4 (concentration in 1-octanol) ([4]; 293.15 K): 3.89 mol∙L^−1 (printed as so × 10^4
xb × 10^7 (mole fraction in buffer) ([4]; 293.15 K): 1.69 mole fraction (printed as xb ×
xo × 10^5 (mole fraction in 1-octanol) ([4]; 293.15 K): 6.14 mole fraction (printed as xo ×
sb × 10^6 (concentration in buffer) ([4]; 298.15 K): 8.77 mol∙L^−1 (printed as sb × 10^6
so × 10^4 (concentration in 1-octanol) ([4]; 298.15 K): 3.90 mol∙L^−1 (printed as so × 10^4
xb × 10^7 (mole fraction in buffer) ([4]; 298.15 K): 1.60 mole fraction (printed as xb ×
xo × 10^5 (mole fraction in 1-octanol) ([4]; 298.15 K): 6.17 mole fraction (printed as xo ×
logPo/b ([4]; 298.15 K): 1.65
sb × 10^6 (concentration in buffer) ([4]; 303.15 K): 8.29 mol∙L^−1 (printed as sb × 10^6
so × 10^4 (concentration in 1-octanol) ([4]; 303.15 K): 3.91 mol∙L^−1 (printed as so × 10^4
xb × 10^7 (mole fraction in buffer) ([4]; 303.15 K): 1.51 mole fraction (printed as xb ×
xo × 10^5 (mole fraction in 1-octanol) ([4]; 303.15 K): 6.21 mole fraction (printed as xo ×
logPo/b ([4]; 303.15 K): 1.67
sb × 10^6 (concentration in buffer) ([4]; 308.15 K): 7.80 mol∙L^−1 (printed as sb × 10^6
so × 10^4 (concentration in 1-octanol) ([4]; 308.15 K): 3.91 mol∙L^−1 (printed as so × 10^4
xb × 10^7 (mole fraction in buffer) ([4]; 308.15 K): 1.42 mole fraction (printed as xb ×
xo × 10^5 (mole fraction in 1-octanol) ([4]; 308.15 K): 6.24 mole fraction (printed as xo ×
sb × 10^6 (concentration in buffer) ([4]; 313.15 K): 7.36 mol∙L^−1 (printed as sb × 10^6
so × 10^4 (concentration in 1-octanol) ([4]; 313.15 K): 3.92 mol∙L^−1 (printed as so × 10^4
xb × 10^7 (mole fraction in buffer) ([4]; 313.15 K): 1.35 mole fraction (printed as xb ×
xo × 10^5 (mole fraction in 1-octanol) ([4]; 313.15 K): 6.28 mole fraction (printed as xo ×
T∆trS^o [5]: 5.81 ± 0.239 kcal/mol
∆trG^o [5]: -3.54 ± 0.048 kcal/mol
∆trH^o [5]: 2.27 ± 0.024 kcal/mol
∆trS^o [5]: 81.5 ± 1.5 J·mol^−1·K^−1
SMILES: O=c1c2sc(=S)n(-c3ccc(Cl)cc3)c2ncn1CCCN1CCN(CC(O)(Cn2cncn2)c2ccc(F)cc2F)CC1 (stereo not shown) [III, 6-[3-[4-[2-(2,4-difluorophenyl)-2-hydroxy-3-(1H-1,2,4-triazol-1-yl)propyl]-1-piperazinyl]propyl]-2,3-dihydro-3-(4-chlorophenyl)-2-thioxo-thiazolo[4,5-d]pyrimidin-7(6H)-one]
advantage over fluconazole ([2]; MIC ratio): 8 fold
activity relative to fluconazole [3]: comparable
